Source: ChEMBL document CHEMBL1133052, “Androsterone 3beta-substituted derivatives as inhibitors of type 3 17beta-hydroxysteroid dehydrogenase” (Bioorg Med Chem Lett, 2000)

How the values were obtained:
Format in all cases: cell-based
[1] = target: T1, 17-beta-hydroxysteroid dehydrogenase type 3 (Homo sapiens) (UniProt P37058); assay: Percent inhibition against type-3 17-beta-HSD expressed in HEK293 cells at 0.3 uM
T1 sequence (whole entry): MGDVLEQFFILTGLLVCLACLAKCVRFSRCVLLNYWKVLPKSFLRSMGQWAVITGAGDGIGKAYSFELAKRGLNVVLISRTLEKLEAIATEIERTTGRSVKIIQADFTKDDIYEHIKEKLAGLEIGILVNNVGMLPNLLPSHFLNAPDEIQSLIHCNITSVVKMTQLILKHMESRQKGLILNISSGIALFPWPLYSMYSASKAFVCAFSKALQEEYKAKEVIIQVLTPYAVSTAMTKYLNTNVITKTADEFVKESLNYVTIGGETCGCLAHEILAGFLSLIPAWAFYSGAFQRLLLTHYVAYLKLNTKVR

[2] = target: T1, 17-beta-hydroxysteroid dehydrogenase type 3 (Homo sapiens); assay: Percent inhibition against type-3 17-beta-HSD expressed in HEK293 cells at 3 uM
[3] = target: T2, 17-beta-hydroxysteroid dehydrogenase type 3 (Homo sapiens, UniProt P37058); assay: Inhibitory concentration against type-3 17-beta-HSD expressed in HEK293 cells
T2 sequence (P37058 whole entry): T1 sequence (whole entry)

SMILES: CCCCCCCC[C@@]1(O)CC[C@@]2(C)C(CC[C@@H]3[C@@H]2CC[C@]2(C)C(=O)CC[C@@H]32)C1 (stereo partly drawn)
- inhibition [1]: 88%
- inhibition [2]: 92%
- IC50 [3]: 147 nM

SMILES: C[C@]12CC[C@](O)(CCC3CCCCC3)CC1CC[C@@H]1[C@@H]2CC[C@]2(C)C(=O)CC[C@@H]12 (stereo partly drawn)
- inhibition [1]: 92%
- inhibition [2]: 93%
- IC50 [3]: 60 nM

SMILES: CCC[C@@]1(O)CC[C@@]2(C)C(CC[C@@H]3[C@@H]2CC[C@]2(C)C(=O)CC[C@@H]32)C1 (stereo partly drawn)
- inhibition [1]: 89%
- inhibition [2]: 94%
- IC50 [3]: 67 nM

SMILES: C[C@]12CC[C@](O)(CCc3ccccc3)CC1CC[C@@H]1[C@@H]2CC[C@]2(C)C(=O)CC[C@@H]12 (stereo partly drawn)
- inhibition [1]: 93%
- inhibition [2]: 93%
- IC50 [3]: 99 nM

SMILES: C[C@]12CC[C@](O)(c3ccccc3)CC1CC[C@@H]1[C@@H]2CC[C@]2(C)C(=O)CC[C@@H]12 (stereo partly drawn)
- inhibition [1]: 88%
- inhibition [2]: 95%
- IC50 [3]: 81 nM

SMILES: C[C@]12CC[C@](O)(C3CCCCC3)CC1CC[C@@H]1[C@@H]2CC[C@]2(C)C(=O)CC[C@@H]12 (stereo partly drawn)
- inhibition [1]: 88%
- inhibition [2]: 93%
- IC50 [3]: 97 nM

SMILES: C[C@]12CC[C@](O)(CC3CCCCC3)CC1CC[C@@H]1[C@@H]2CC[C@]2(C)C(=O)CC[C@@H]12 (stereo partly drawn)
- inhibition [1]: 93%
- inhibition [2]: 95%
- IC50 [3]: 87 nM

SMILES: CCCCCC[C@@]1(O)CC[C@@]2(C)C(CC[C@@H]3[C@@H]2CC[C@]2(C)C(=O)CC[C@@H]32)C1 (stereo partly drawn)
- inhibition [1]: 93%
- inhibition [2]: 96%
- IC50 [3]: 100 nM

SMILES: C[C@@]1(O)CC[C@@]2(C)C(CC[C@@H]3[C@@H]2CC[C@]2(C)C(=O)CC[C@@H]32)C1 (stereo partly drawn)
- inhibition [1]: 72%
- inhibition [2]: 93%

SMILES: C[C@]12CC[C@](O)(Cc3ccccc3)CC1CC[C@@H]1[C@@H]2CC[C@]2(C)C(=O)CC[C@@H]12 (stereo partly drawn)
- inhibition [1]: 90%
- inhibition [2]: 94%
- IC50 [3]: 57 nM

SMILES: C[C@]12CC[C@@H](O)C[C@H]1CC[C@@H]1[C@@H]2CC[C@]2(C)C(=O)CC[C@@H]12 [ETIOCHOLANOLONE]
- inhibition [1]: 50%
- inhibition [2]: 88%
- IC50 [3]: 330 nM

SMILES: CCC(C)[C@@]1(O)CC[C@@]2(C)C(CC[C@@H]3[C@@H]2CC[C@]2(C)C(=O)CC[C@@H]32)C1 (stereo partly drawn)
- inhibition [1]: 85%
- inhibition [2]: 90%
- IC50 [3]: 73 nM

SMILES: C[C@]12CCC(=O)C=C1CC[C@@H]1[C@@H]2CC[C@]2(C)C(=O)CC[C@@H]12 [ANDROSTENEDIONE]
- inhibition [1]: 24%
- inhibition [2]: 78%
- IC50 [3]: 758 nM
